Assay results reported in patent US8541364B2, “Use of a octreotide as a therapeutic agent” (Mondobiotech Laboratories AG, priority 2007, dated 2013).

What was measured:
HIV-1IIIB = assay: HIV-1 antiviral assay, CPE reduction (MTS); conditions: peptide 10 micrograms per ml; 6 days post-infection
CEM-SS cells = assay: HIV-1 assay cytotoxicity, MTS cell viability; conditions: peptide 10 micrograms per ml
Streptococcus pneumoniae = Streptococcus pneumoniae assay; format: cell-based; conditions: Streptococcus pneumoniae growth; peptide 10 micrograms per ml
Protocol: (§1) The antibacterial assay was conducted using clear, U-bottom 96-well microtiter plates. Cation-adjusted Mueller-Hinton Broth (MHB) was used for testing Streptococcus pneumoniae. The peptide of the invention (0.1 ml of each—10 micrograms per ml—) was dispensed into wells in duplicate. Then the wells were inoculated with 5×10^5 CFU/mL Streptococcus pneumoniae in 0.1 ml volume. For control purposes, each plate included 4 wells containing media without bacterial inoculum and 4 wells containing medium with inoculum but without peptide. The plates were incubated for 12 h at 37° C., and read visually 18-24 hours post-incubation. Growth control of Streptococcus pneumoniae was examined first to determine adequacy of media preparations and growth conditions. Acceptable growth is defined as ≧2 mm wide button of cells at the bottom of each sample well, or obvious turbidity in the culture supernatant. Test wells were examined and scored as positive/negative for activity. A positive score for activity is based on complete inhibition of macroscopic growth of the test Streptococcus pneumoniae.

Pseudomonas aeruginosa = Pseudomonas aeruginosa assay; format: cell-based; conditions: Pseudomonas aeruginosa growth; peptide 10 micrograms per ml
Protocol: as §1, with “Pseudomonas aeruginosa.” for “Streptococcus pneumoniae.”, “Pseudomonas aeruginosa” for “Streptococcus pneumoniae”

MRSA = assay: Methicillin resistant Staphylococcus aureus (MRSA) assay; format: cell-based; conditions: MRSA growth; peptide 10 micrograms per ml
Protocol: as §1, with “MRSA.” for “Streptococcus pneumoniae.”, “MRSA” for “Streptococcus pneumoniae”, “2” for “≧2”

HUVEC [1] = assay: Endothelial tube formation assay; format: cell-based, human; conditions: 10 micrograms per ml, 20 hours
Protocol: The endothelial tube formation assay is based on the ability of endothelial cells to form three-dimensional capillary-like tubular structures when cultured on a gel of basement membrane extract. The endothelial tube formation assay represents a powerful model for studying inhibition and induction of angiogenesis. Pre-labeled HUVEC with Calcein AM were seeded in a 96-well culture plate coated with extracellular metrix (Chemicon international Cat. ECM625) and treated with test peptide—10 micrograms per ml—in full growth medium. Positive control was vehicle only. The endothelial cells were allowed to form tubes foe 20 hours and were then examined under an inverted fluorescent microscope. Duplicate wells for each treatment were photographed and quantitatevily analyzed for an average tubule length using image analysis software ImageProPlus. Raw data were expressed as average tubule lenghs in pixels±standard deviation. Statistic p values were computed using the Student's t-test.

MRC-5 cells = assay: HCMV assay cytotoxicity testing, CellTiter 96; format: cell-based, human; conditions: 6 days incubation
Protocol: (§2) Cells were split twic a week 1:2.
For cytotxicity testing, MRC-5 cells were seeded at 2,500 cells/well in 96 well plates using growth medium. […] The following day, peptide was added and tested in duplicates. After a 6 days incubation period, cell viability was measured using CellTiter 96 Solution (Promega). Plates were incubated for additional 4 hours at 37° C.

A549 cells [2] = assay: Propidium iodide cell cycle assay; format: cell-based, human; conditions: 10 micrograms per ml, 24 hours
Protocol: Human A549 cells (carcinomic human alveolar basal epithelial cells) were utilized in the experiments employing the Propidium iodide cell cycle assay. The eukaryotic cell cycle is a series of events that take place in a cell leading to its replication.
Propidium iodide is an intercalating agent and a fluorescent molecule that can be used to stain DNA. Cells were incubated for 24 hours with test peptide—10 micrograms per ml—or left untreated. After that cells were trypsinized, suspended in medium+10% FCS, centrifuged (1000 rpm, 5 min), and the cell pellet resuspended in PBS (1 ml). The cells were pipetted into 2.5 ml absolute EtOH (final concentration approx. 70%) and incubated on ice for 15 min. Thereafter, cells were pelleted at 1500 rpm for 5 min and resuspended in Propidium iodide solution in PBS. After incubation for 40 min at 37° C., cells were analyzed in the FACS.

HCMV strain AD169 = assay: HCMV plaque reduction assay; format: cell-based; conditions: HCMV in MRC-5 cells; peptide 10 micrograms per ml; 7-10 days
Description: as §2
Ganciclovir was used as positive control.

HUVEC [3] = assay: Endothelial cell migration assay; format: cell-based, human; conditions: 10 micrograms per ml, 22 hours
Protocol: Endothelial cell migration is a prerequisite for the process of neo-vascularization or angiogenesis which is crucial for on-site recruitment of blood vessel formation. Primary Human endothelial cells (HUVEC) were seeded in insert chambers with 3 micrometer pore size of multi-transwell plate for 6 hours at 37° C. in Endothelial Cell Basal Medium (EBM) supplemented with 0.1% bovine serum albumin. Thereafter, designated concentration of test peptide—10 micrograms per ml—was added in duplicate wells. The endothelia were allowed to migrate for 22 hours at 37° C., then, migrated cells were fixed and stained with Hoechst 33342 dye. Images of 3 fields per insert were taken and the number of migrated cells per field were quantified using the ImageProPlus software. Data were analyzed for the average number of the migrated cells and standard deviation of six data points for each treatment condition. Active test peptide against HUVEC migration was determined based on 50% inhibition of migrated cells as compared with the control. Statistic p values were computed using the Student's t-test.

A549 cells [4] = assay: Apoptosis prevention assay (Annexin-5, C2 ceramide); format: cell-based, human; conditions: A549 cells pretreated 30 min; 10 micrograms per ml
Description: Human A549 cells (carcinomic human alveolar basal epithelial cells) were utilized in the experiments employing the Annexin-5 apoptosis assay. Annexin-5 is a member of a highly conserved protein family that binds acidic phospholipids in a calcium-dependent manner. […] Phosphatidylserine is translocated from the inner side of the plasma membrane to the outer layer when cells undergo death by apoptosis or cell necrosis and serves as a signal by which cell destined for death are recognized by phagocytes. A549 cells were pretreated for 30 min with test peptide—10 micrograms per ml—followed by the exposure to C2 ceramide. Ceramide mediates cell apoptosis through the activation of the mitogen activating protein kinase (MAPK) and the stress activated kinase (JNK/SAPK). C2 ceramide is a synthetic, membrane soluble analog of ceramide.

[5] = system: PHA-stimulated PBMC (T cell proliferation); assay: T cell proliferation assay; format: cell-based, human; conditions: 3H-thymidine incorporation; 10 micrograms per ml
Protocol: Human Peripheral Blood Mononuclear Cells (PBMC) were obtained from normal human donors. The T cell proliferation was induced by stimulation of the cells with the T cell mitogen phytohemagglutinin (PHA), either in the absence (positive proliferation control), or in the presence of test peptide—10 micrograms per ml—to examine their effects on the T cell proliferating response. 10^5/well PBMC were plated in 96-well microtiter plates and assayed in duplicate with the peptide. Cell cultures were incubated at 37° C. for 3 days in a 5% CO2 incubator and were thereafter pulsed with 1 microCi/well ^3H-thymidine for additional 12 hours of culture. At the end of incubation time, the plates were harvested and the cells counted by liquid scintillation for the incorporation of ^3H-thymidine as a measure of T cell proliferation.

[6] = system: Ovalbumin-restimulated spleen cells; assay: Th1/Th2 cytokine profiling assay; format: cell-based, Balb/c mice; conditions: 10 micrograms per ml; 72 hours
Description: The Balb/c mice (originated in 1923, it is a popular strain and is used in many different research disciplines. Also classified as an inbred from the production of 20 or more successive brother-sister matings, the Balb/c mouse is albino and small in size) were immunized on Days 1, 15, and 29 with Ovalbumin (Ovalbumin is the main protein found in egg white, commonly used to stimulate an immunological reaction in test animals) in PBS (5 micrograms/injection). On day 50, spleens of the mice were harvested (3 weeks after last boost with Ovalbumin). Cells were cultured (2×10^5/well in triplicate) and incubated with culture medium or test peptide—10 micrograms per ml—for 30 min. Thereafter, additional Ovalbumin was added to the cells at 10 micrograms/ml for in vitro restimulation of the cells. 72 hours later, cell supernatants were harvested and assayed using the Becton Dickinson Mouse Th1/Th2 Cytokine CBA Kit. This kit can be used to measure Interleukin-2 (IL-2), Interleukin-4 (IL-4), Interleukin-5 (IL-5), Interferon-γ (IFN-γ), and Tumor Necrosis Factor-α (TNF-α) protein levels in a single sample. The kit performance has been optimized for analysis of physiologically relevant concentrations (pg/ml levels) of specific cytokine proteins in tissue culture supernatants and serum samples.

A549 cells [7] = assay: Apoptosis induction assay (Annexin-5); format: cell-based, human; conditions: 10 micrograms per ml, 24 hours
Description: Human A549 cells (carcinomic human alveolar basal epithelial cells) were utilized in the experiments employing the Annexin-5 apoptosis assay. Annexin-5 is a member of a highly conserved protein family that binds acidic phospholipids in a calcium-dependent manner. […] Phosphatidylserine is translocated from the inner side of the plasma membrane to the outer layer when cells undergo death by apoptosis or cell necrosis and serves as a signal by which cell destined for death are recognized by phagocytes. Test peptide—10 micrograms per ml—were exposed for 24 hours to the A549 cells before they were analyzed for signs of apoptosis.

HepG2-2.2.15 cells = assay: HBV assay cytotoxicity, dye uptake cell viability; format: cell-based; conditions: peptide 10 micrograms per ml

## Cc1cn([C@H]2C[C@H](N=[N+]=[N-])[C@@H](CO)O2)c(=O)[nH]c1=O [AZT, reference compound]
HIV-1IIIB
  % CPE reduction in HIV-1 infected CEM-SS cells: 99%
CEM-SS cells
  % Cell viability: 97%

## CC(C)(C)NC(=O)[C@@H]1CN(Cc2cccnc2)CCN1C[C@@H](O)C[C@@H](Cc1ccccc1)C(=O)N[C@H]1c2ccccc2C[C@H]1O [Indinavir]
HIV-1IIIB
  % CPE reduction in HIV-1 infected CEM-SS cells: 100%

## C[C@@H](O)[C@@H]1NC(=O)[C@H](CCCCN)NC(=O)[C@@H](Cc2c[nH]c3ccccc23)NC(=O)[C@H](Cc2ccccc2)NC(=O)[C@@H](NC(=O)[C@H](N)Cc2ccccc2)CSSC[C@@H](C(=O)N[C@H](CO)[C@@H](C)O)NC1=O [Octreotide, D-Phe-Cys-Phe-D-Trp-Lys-Thr-Cys-L-threoninol]
Streptococcus pneumoniae
  % inhibition: 100.0%
Pseudomonas aeruginosa
  % inhibition: 0.0%
MRSA
  % inhibition: 0.0%
HUVEC [1]
  % inhibition of tube formation: 8%
HIV-1IIIB
  % CPE reduction in HIV-1 infected CEM-SS cells: 0.0%
MRC-5 cells
  % Cell viability: 100%
A549 cells [2]
  Cell cycle analysis G2/M: 9.2
HCMV strain AD169
  % plaque reduction: 0.0%
HUVEC [3]
  % inhibition of migration: −24%
A549 cells [4]
  % prevention of ceramide induced apoptosis: 0.0%
[5]
  % of PHA induced control: 100.0%
[6]
  IFNγ spleen cells; TH1 response (% of control): 56.0 % of control
A549 cells [7]
  % of induction: 2.6%
HepG2-2.2.15 cells
  % Cell viability: 97.8%
CEM-SS cells
  % Cell viability: 100%
